Laboratory results from patent publication US5488060A, “Substituted thiadiazoles, compositions containing them and their use as antimicrobial and marine antifouling agents” (The Dow Chemical Company, priority 1994, dated 1996).
Converted amounts (≈) assume the structure as drawn. Read-outs that look alike come from different tables or passages of the source.

What was measured:
Assay type in all cases: cell-based
Bacillus subtilis (Bs) = test: Minimum inhibitory concentration (MIC) in nutrient agar, Bacillus subtilis
Procedure, shortened: (§1)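 Agar dilution in nutrient agar at pH 6.8 and pH 8.2 (tricine-buffered), compound at 0–500 ppm from a 1% acetone/water solution. Replicator inoculation from 10^8 CFU/mL suspensions; plates incubated 48 h at 30° C. MIC is the lowest concentration preventing growth.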

[1] = test system: Enterobacter aerogenes (Ea); test: Minimum inhibitory concentration (MIC) in nutrient agar, Enterobacter aerogenes; settings: Klebsiella aerogenes, 48 h
Procedure, shortened: as §1

Escherichia coli (Ec) = test: Minimum inhibitory concentration (MIC) in nutrient agar, Escherichia coli
Procedure, shortened: as §1

[2] = test system: Klebsiella pneumoniae (Kp); test: Minimum inhibitory concentration (MIC) in nutrient agar, Klebsiella pneumoniae
Procedure, shortened: as §1

Proteus vulgaris (Pv) = test: Minimum inhibitory concentration (MIC) in nutrient agar, Proteus vulgaris; settings: 48 h
Procedure, shortened: as §1

[3] = test system: Pseudomonas aeruginosa (PRD-10); test: Minimum inhibitory concentration (MIC) in nutrient agar, Pseudomonas aeruginosa PRD-10; settings: 48 h
Procedure, shortened: as §1

[4] = test system: Pseudomonas aeruginosa (Pa); test: Minimum inhibitory concentration (MIC) in nutrient agar, Pseudomonas aeruginosa; settings: 30° C., 48 hours, read-out: Minimum Inhibitory Concentration, Pa
Procedure, shortened: as §1

[5] = test system: Salmonella choleraesuis (Se); test: Minimum inhibitory concentration (MIC) in nutrient agar, Salmonella choleraesuis; settings: Salmonella enterica, 48 h
Procedure, shortened: as §1

[6] = test system: Staphylococcus aureus (Sa); test: Minimum inhibitory concentration (MIC) in nutrient agar, Staphylococcus aureus
Procedure, shortened: as §1

Aspergillus niger (An) = test: Minimum inhibitory concentration (MIC) in malt yeast agar, Aspergillus niger
Procedure, shortened: (§2)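 Agar dilution: test compound from a 1% acetone/water solution was mixed into malt yeast agar (pH 5.5) at 48 °C to final […], 25, 10, 5, 2.5, 1.0 and zero ppm. Plates dried 24 h, were replicator-inoculated with 1:9 saline-diluted suspensions of 7-day 30 °C cultures, and were read after 72 h (fungi) or 48 h (yeast) at 30 °C.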

Candida albicans (Ca) = test: Minimum inhibitory concentration (MIC) in malt yeast agar, Candida albicans
Procedure, shortened: as §2

[7] = test system: Penicillium chrysogenum (Pc); test: Minimum inhibitory concentration (MIC) in malt yeast agar, Penicillium chrysogenum
Procedure, shortened: as §2

[8] = test system: Saccharomyces cerevisiae (Sc); test: Minimum inhibitory concentration (MIC) in malt yeast agar, Saccharomyces cerevisiae; settings: pH 5.5, malt yeast agar, 30° C., 48 hours for yeast, read-out: Minimum Inhibitory Concentration, SC
Procedure, shortened: as §2

Trichoderma viride (Tv) = test: Minimum inhibitory concentration (MIC) in malt yeast agar, Trichoderma viride
Procedure, shortened: as §2

[9] = test system: Aureobasidium pullulan (Ap); test: Minimum inhibitory concentration (MIC) in malt yeast agar, Aureobasidium pullulan
Procedure, shortened: as §2

Fusarium oxysporum (Fo) = test: Minimum inhibitory concentration (MIC) in malt yeast agar, Fusarium oxysporum
Procedure, shortened: as §2

[10] = pH 6.8, nutrient agar, 30° C., 48 hours, read-out: Minimum Inhibitory Concentration, Bs
[11] = pH 8.2, nutrient agar, 30° C., 48 hours, read-out: Minimum Inhibitory Concentration, Bs
[12] = pH 6.8, read-out: Minimum Inhibitory Concentration, Ea
[13] = pH 8.2, read-out: Minimum Inhibitory Concentration, Ea
[14] = 48 h, pH 6.8, read-out: Minimum Inhibitory Concentration, Ec
[15] = 48 h, pH 8.2, read-out: Minimum Inhibitory Concentration, Ec
[16] = 48 h, pH 8.2, read-out: Minimum Inhibitory Concentration, Kp
[17] = pH 6.8, nutrient agar, 30° C., 48 hours, read-out: Minimum Inhibitory Concentration, Kp
[18] = pH 6.8, read-out: Minimum Inhibitory Concentration, Pv
[19] = pH 8.2, read-out: Minimum Inhibitory Concentration, Pv
[20] = pH 6.8, read-out: Minimum Inhibitory Concentration, PRD
[21] = pH 8.2, read-out: Minimum Inhibitory Concentration, PRD
[22] = pH 6.8, read-out: Minimum Inhibitory Concentration, SC
[23] = pH 8.2, read-out: Minimum Inhibitory Concentration, SC
[24] = pH 6.8, nutrient agar, 30° C., 48 hours, read-out: Minimum Inhibitory Concentration, Sa
[25] = pH 8.2, nutrient agar, 30° C., 48 hours, read-out: Minimum Inhibitory Concentration, Sa
[26] = pH 5.5, malt yeast agar, 30° C., 72 hours for fungi, read-out: Minimum Inhibitory Concentration, An
[27] = 48 h, pH 5.5, read-out: Minimum Inhibitory Concentration, Ca
[28] = pH 5.5, malt yeast agar, 30° C., 72 hours for fungi, read-out: Minimum Inhibitory Concentration, Tv
[29] = pH 5.5, malt yeast agar, 30° C., 72 hours for fungi, read-out: Minimum Inhibitory Concentration, Fo
[30] = 48 h, pH 8.2, read-out: Minimum Inhibitory Concentration, Bs
[31] = 48 h, pH 8.2, read-out: Minimum Inhibitory Concentration, Sa
[32] = pH 5.5, malt yeast agar, 30° C., 72 hours for fungi, read-out: Minimum Inhibitory Concentration, PC
[33] = pH 5.5, malt yeast agar, 30° C., read-out: Minimum Inhibitory Concentration, Ap
[34] = pH 8.2, nutrient agar, 30° C., 48 hours, read-out: Minimum Inhibitory Concentration, Ec
[35] = 72 h, pH 5.5, read-out: Minimum Inhibitory Concentration, Fo

| Compound | MIC (Bacillus subtilis (Bs); [10]) [µg/mL] | MIC [1, 12] [µg/mL] | MIC [1, 13] [µg/mL] | MIC (Escherichia coli (Ec); [14]) [µg/mL] | MIC [2, 16] [µg/mL] | MIC [2, 17] [µg/mL] | MIC (Proteus vulgaris (Pv); [18]) [µg/mL] | MIC (Proteus vulgaris (Pv); [19]) [µg/mL] | MIC [3, 20] [µg/mL] | MIC [3, 21] [µg/mL] | MIC ([4]; pH 6.8, nutrient agar) [µg/mL] | MIC ([4]; pH 8.2, nutrient agar) [µg/mL] | MIC [5, 22] [µg/mL] | MIC [5, 23] [µg/mL] | MIC [6, 24] [µg/mL] | MIC (Aspergillus niger (An); [26]) [µg/mL] | MIC (Candida albicans (Ca); [27]) [µg/mL] | MIC [8] [µg/mL] | MIC (Trichoderma viride (Tv); [28]) [µg/mL] | MIC [7, 32] [µg/mL] | other results |
| --- | --- | --- | --- | --- | --- | --- | --- | --- | --- | --- | --- | --- | --- | --- | --- | --- | --- | --- | --- | --- | --- |
| N#CSCSc1nsnc1-c1cccc(Cl)c1 [Example XIX, 4-(3-Chlorophenyl)-3-thiocyanatomethylthio-1,2,5-thiadiazole] | 9 (≈ 30 µM) | 500 (≈ 1670 µM) | > 500 | 500 (≈ 1670 µM) | > 500 | 500 (≈ 1670 µM) | 500 (≈ 1670 µM) | > 500 | 500 (≈ 1670 µM) | > 500 | 500 (≈ 1670 µM) | > 500 | 500 (≈ 1670 µM) | > 500 | 9 (≈ 30 µM) | 5 (≈ 16.7 µM) | 25 (≈ 83.4 µM) | 1 (≈ 3.34 µM) | > 500 |  | MIC (Bacillus subtilis (Bs); [11]): 9 µg/mL (≈ 30 µM); MIC (Escherichia coli (Ec); [15]): 500 µg/mL (≈ 1670 µM); MIC [6, 25]: 9 µg/mL (≈ 30 µM); MIC ([7]; 72 h, pH 5.5, read-out: Minimum Inhibitory Concentration, PC): 2.5 µg/mL (≈ 8.34 µM); MIC ([9]; pH 5.5, read-out: Minimum Inhibitory Concentration, Ap): 2.5 µg/mL (≈ 8.34 µM); MIC (Fusarium oxysporum (Fo); [29]): 500 µg/mL (≈ 1670 µM) |
| N#CSCSc1nsnc1-c1ccc(Br)cc1 [Example XVII, 4-(4-Bromophenyl)-3-thiocyanatomethylthio-1,2,5-thiadiazole] | 9 (≈ 26.1 µM) | > 500 | > 500 | > 500 | > 500 | > 500 | > 500 | > 500 | > 500 | > 500 | > 500 | > 500 | > 500 | > 500 | > 500 |  |  | 9 (≈ 26.1 µM) | 500 (≈ 1450 µM) | 9 (≈ 26.1 µM) | MIC (Bacillus subtilis (Bs); [30]): 25 µg/mL (≈ 72.6 µM); MIC (Escherichia coli (Ec); [15]): > 500 µg/mL; MIC [6, 31]: > 500 µg/mL; MIC (Aspergillus niger (An); 72 h, pH 5.5, read-out: Minimum Inhibitory Concentration, An): 25 µg/mL (≈ 72.6 µM); MIC (Candida albicans (Ca); pH 5.5, malt yeast agar, 30° C., 48 hours for yeast, read-out: Minimum Inhibitory Concentration, Ca): 500 µg/mL (≈ 1450 µM); MIC [9, 33]: 9 µg/mL (≈ 26.1 µM); MIC (Fusarium oxysporum (Fo); [29]): 250 µg/mL (≈ 726 µM) |
| N#CSCSc1nsnc1-c1ccc(Cl)cc1 [Example XVIII, 4-(4-Chlorophenyl)-3-thiocyanatomethylthio-1,2,5-thiadiazole] |  | 500 (≈ 1670 µM) | > 500 | 500 (≈ 1670 µM) | > 500 | 500 (≈ 1670 µM) | 500 (≈ 1670 µM) | > 500 | 500 (≈ 1670 µM) | > 500 | 500 (≈ 1670 µM) | > 500 | 500 (≈ 1670 µM) | > 500 | 500 (≈ 1670 µM) | 9 (≈ 30 µM) | 250 (≈ 834 µM) | 9 (≈ 30 µM) |  | 9 (≈ 30 µM) | MIC (Bacillus subtilis (Bs); 48 h, pH 6.8, read-out: Minimum Inhibitory Concentration, Bs): 500 µg/mL (≈ 1670 µM); MIC (Bacillus subtilis (Bs); [30]): 500 µg/mL (≈ 1670 µM); MIC (Escherichia coli (Ec); [34]): 250 µg/mL (≈ 834 µM); MIC [6, 31]: > 500 µg/mL; MIC (Trichoderma viride (Tv); 72 h, pH 5.5, read-out: Minimum Inhibitory Concentration, Tv): 250 µg/mL (≈ 834 µM); MIC [9, 33]: 9 µg/mL (≈ 30 µM); MIC (Fusarium oxysporum (Fo); [35]): 100 µg/mL (≈ 334 µM) |
| N#CSCSc1nsnc1-c1ccccc1Cl [Example XX, 4-(2-Chlorophenyl)-3-thiocyanatomethylthio-1,2,5-thiadiazole] | 9 (≈ 30 µM) | 500 (≈ 1670 µM) | > 500 | 500 (≈ 1670 µM) | > 500 | 500 (≈ 1670 µM) | 500 (≈ 1670 µM) | > 500 | 500 (≈ 1670 µM) | > 500 | 500 (≈ 1670 µM) | > 500 | 500 (≈ 1670 µM) | > 500 | 9 (≈ 30 µM) | 9 (≈ 30 µM) | 250 (≈ 834 µM) | 9 (≈ 30 µM) | > 500 | 9 (≈ 30 µM) | MIC (Bacillus subtilis (Bs); [11]): 9 µg/mL (≈ 30 µM); MIC (Escherichia coli (Ec); [34]): 250 µg/mL (≈ 834 µM); MIC [6, 25]: 9 µg/mL (≈ 30 µM); MIC [9, 33]: 9 µg/mL (≈ 30 µM); MIC (Fusarium oxysporum (Fo); [35]): 25 µg/mL (≈ 83.4 µM) |
